Legend:
[1] = Aerosol characterisation with M-Neb dose+ mesh nebulizer MN-300/8 and COPLEY next generation impactor (NGI); assay type: physicochemical; settings: VIP dissolved in 0.9% NaCl
Text: Using the M-Neb® dose+ mesh nebulizer MN-300/8 and the respective mouthpiece, VIP has been tested with the COPLEY next generation impactor (NGI). The mass median aerodynamic diameter (MMD) of VIP dissolved in 0.9% NaCl was 3.3-3.5 μm per emitted particle.

[2] = Off-label inhaled VIP therapy in a patient with checkpoint inhibitor-induced pneumonitis; assay type: in vivo, human
Protocol: A patient, who was treated with checkpoint inhibitors, developed CIP and steroid treatment led to insufficient control. Because of missing other approved therapeutic options the patient was treated off-label with inhaled VIP therapy initiated at a dose of 4×70 μg/ml per day dosage (280 μg per day with overnight break).

[3] = human, in vivo
[4] = Blood level of VIP after aerosol administration; assay type: in vivo
Text: This is especially unexpected as the treatment with aerosols is normally regarded to be only efficient if inhaled noxes are the cause of the pulmonary defects. In the context of the present invention, a systemic substance is, however, the cause of drug-induced pneumonitis (such as CIP) and therefore topic administration is not expected to have any great effect.

[5] = sarcoidosis, inhaled aerosolized VIP; cited from earlier work
[6] = 50 μg four times daily by inhalation, 28 days; cited from earlier work
[7] = CIP patient, inhaled VIP 280 μg per day

Which “dose delivered at the mouthpiece” value ([1]; M-Neb dose+ MN-300/8) does the source give for `CC[C@H](C)[C@H](NC(=O)[C@H](CO)NC(=O)[C@H](CC(N)=O)NC(=O)[C@H](CC(C)C)NC(=O)[C@H](Cc1ccc(O)cc1)NC(=O)[C@H](CCCCN)NC(=O)[C@H](CCCCN)NC(=O)[C@@H](NC(=O)[C@H](C)NC(=O)[C@H](CCSC)NC(=O)[C@H](CCC(N)=O)NC(=O)[C@H](CCCCN)NC(=O)[C@H](CCCNC(=N)N)NC(=O)[C@H](CC(C)C)NC(=O)[C@H](CCCNC(=N)N)NC(=O)[C@@H](NC(=O)[C@H](Cc1ccc(O)cc1)NC(=O)[C@H](CC(N)=O)NC(=O)[C@H](CC(=O)O)NC(=O)[C@@H](NC(=O)[C@H](Cc1ccccc1)NC(=O)[C@@H](NC(=O)[C@H](C)NC(=O)[C@H](CC(=O)O)NC(=O)[C@H](CO)NC(=O)[C@@H](N)Cc1c[nH]cn1)C(C)C)[C@@H](C)O)[C@@H](C)O)C(C)C)C(=O)N[C@@H](CC(C)C)C(=O)N[C@@H](CC(N)=O)C(N)=O` [VIP, Vasoactive intestinal peptide] here?
Its value is 90.2 % of the tested dosages.

And the “particles with a diameter” value ([1]; M-Neb dose+ MN-300/8)?
The value was 85.7%.

And the “mass median aerodynamic diameter (MMD) per emitted particle” value ([1]; M-Neb dose+ MN-300/8 with mouthpiece)?
The value was 3.3-3.5 μm.

And the “alveolar inflammation as measured by bronchoalveolar lavage” value [2, 7]?
Its value is “dampened by an increase of regulatory T-cell”.

What about the “patient's general health” value [2, 7] of the same compound?
Its value is “ameliorated”.

What about the “radiological alterations (e.g. consolidations)” value [2, 7] of the same compound?
Its value is “diminished”.

And the lung function ([2]; CIP patient, inhaled VIP 4×70 μg per day (280 μg per day))?
Its lung function is “normalized within six months of treatment”.

And the “side effects on the patient's immune system” value ([2]; VIP inhalation in CIP)?
Its value is “does not suffer from severe side effects on the patient's immune system”.

What about the clinical outcome [3] of the same compound?
Its clinical outcome is “clinical amelioration”.

What about the “blood level of VIP” value [4] of the same compound?
Its value is “does not lead to an elevated blood level of VIP”.

And the TNF-release [5]?
The TNF-release was “decrease of TNF-release”.

What about the “regulatory T-cells” value [5] of the same compound?
The value was “increase of regulatory T-cells”.

What about the symptoms [5] of the same compound?
Its symptoms is “symptomatic relief”.

What about the “tolerability / adverse events” value [6] of the same compound?
The value was “well tolerated without serious adverse events”.

— US20220202906A1, “VASOACTIVE INTESTINAL PEPTIDE (VIP) FOR USE IN THE TREATMENT OF DRUG-INDUCED PNEUMONITIS” (ADVITA L[…], priority 2019, published 2022)
